{"source": "patent US20260250721A1", "about": "“Biological Anisole Production” (Wageningen Universiteit, priority 2023, published 2026)", "molecules": {"B1": {"name": "CVOMT1: chavicol O-methyltransferase (EC 2.1.1.146) from Ocimum basilicum, SEQ ID NO:1 (protein, listed as Ocimum basilicum)", "chain": "MALQNMDISLSTEQLLQAQAHVWNHMYAFANSMSLKCAIQLGIPDILHKHDHPMTLSQLLKAIPINKEKSQSFQRLMRALVNSNFFIEENSNNQEVCYWLTPASRLLLKGAPLTVAPLVQVVLDPTFTNPWHYMSEWFKHENHATQFEAANGCTFWEKLANKPSMGRFFDEAMSCDSRLVAHVLTKDYKHVIDGIRTLVDVGGGNGTMAKAIVEAVPTMKCTVLDLPHVVAGLESTDKLSYIGGDMFQSIPSADAILLKFIIHDWDDEEGLKILKRCKDAVGIGGKVIIIDVVVGVNHDVDEVLEDQLHFDMAMMSYFNAKERTMNEWEKLISAAGFTSYKLTPAFGVRSLIEAYP"}, "B2": {"name": "POMT1: evolved phenol O-methyltransferase, SEQ ID NO:1 with D264N alteration (SEQ ID NO:3) (protein)", "chain": "B1 chain with D264N"}}, "key": {"[1]": {"test": "Abiotic escape of anisole from M9 minimal media overnight", "type": "physicochemical", "conditions": "2 mM anisole in M9 minimal media, flasks"}, "[2]": {"test": "Anisole capture at different dodecane ratios, 24 h flasks", "type": "physicochemical", "conditions": "30° C., 250 rpm", "protocol": "An additional experiment was performed to determine the optimal ratio of the two phases. Ratios of 0%, 5%, 15%, 30%, 50%, and 100% dodecane were tested in a total volume of 25 ml. […] Next, dodecane was added to the flasks according to the predetermined ratios. Flasks were incubated for 24 h at 30° C. and 250 rpm to simulate P. putida KT2440 growth. After incubation, samples were collected separately from each phase and concentrations were measured using HPLC. […] After 24 hours, samples containing the organic phase from 5% and 15% dodecane flasks captured on average 19.42% and 39.57% of the initial concentration of anisole, respectively. […] Flasks containing 30% dodecane, extracted approximately 75% of the anisole which was further increased to nearly 95% flasks with a 50% ratio."}, "[3]": {"test": "Distribution of anisole and phenol between water and organic solvent after 1 h", "type": "physicochemical", "conditions": "1 mM in water, equal volume of dodecane, ethyl acetate, isopropyl myristate or tributyrin", "protocol": "A main bottleneck when producing anisole is its volatility. To overcome this problem an organic solvent can be used in biphasic fermentation to quantify volatile or insoluble products in water, allowing their recovery. To enable in situ anisole extraction, we tested four organic solvents: dodecane, ethyl acetate, isopropyl myristate, and tributyrin. […] Next, 0.9 ml of the stock solution was mixed with an equal volume of one of the selected solvents in an Eppendorf tube.\nTherefore, dodecane was chosen as the solvent for anisole extraction."}, "[4]": {"system": "P. putida KT2440", "test": "Toxicity analysis: growth of P. putida KT2440 at different phenol and anisole concentrations", "protocol": "(§1) P. putida and E. coli cultures were incubated at 30° C. and 37° C. respectively. For cloning purposes, both strains were propagated in Lysogeny Broth (LB) medium containing 10 g/L NaCl, 10 g/L tryptone, and 5 g/L yeast extract. For the preparation of solid media, 1.5% (w/v) agar was added. […] All growth experiments were performed using M9 minimal medium (per Liter; 3.88 g K2HPO4, 1.63 g NaH2PO4, 2.0 g (NH4)2SO4, pH 7.0. The M9 media was supplemented with a trace elements solution (10 mg/L ethylenediaminetetraacetic acid (EDTA), 0.1 g/L MgCl2 6 H2O, 2 mg/L ZnSO4·7H2O, 1 mg/L CaCl2)·2H2O, 5 mg/L FeSO4·7 H2O, 0.2 mg/L Na2MoO4·2H2O, 0.2 mg/L CuSO4·5H2O, 0.4 mg/L CoCl2·6H2O, 1 mg/L MnCl2·2H2O). In these experiments, strains were precultured in 10 mL LB with corresponding antibiotics. Then, the cultures were washed twice in M9 media without a carbon source. Finally, the cultures were diluted to an OD600 of 0.1 to start the experiment. In all plate reader experiments, a glucose concentration of 10 mM was used. […] Plate reader experiments were carried out in 200 μL of M9 medium using an ELx808 plate reader (BioTek). Growth (OD600) was measured over time using continuous shaking and measurements were taken every three minutes. Flask experiments were performed in 250 mL Erlenmeyer flasks filled with 25 mL of M9 minimal medium containing 50 mM of glucose. […] The cultures were incubated in a rotary shaker at 200 rpm at 30° C.\nThe production of aromatic compounds often comes with unwanted toxicity. One way of circumventing this is the utilization of microbial hosts with high tolerance towards aromatic compounds (Li et al., 2020. Biotechnol Adv 41: 107548).\nThe presence of phenolic hydroxyl groups has been associated with the inhibition of microbial enzymes and the damage of the bacterial membrane (Miklasinska-Majdanik et al., 2018. Int J Environ Res Public Health 15: 2321)."}, "[5]": {"system": "phenol", "test": "Phenol consumption and anisole production, CVOMT1 vs POMT1 in P. putida KT2440 with 50% dodecane", "type": "cell-based, Pseudomonas putida", "conditions": "for anisole produced, maximum / phenol consumed: 50 mM glucose, 1 mM phenol, 1 mM methionine, 50% dodecane; for phenol consumed: 24 hours", "protocol": "Cell growth was determined by measuring the optical density at 600 nm (OD600) using an OD600 DiluPhotometer spectrophotometer (IMPLEN) or a Synergy plate reader (BioTek Instruments). Analysis of glucose in supernatants was performed using high-performance liquid chromatography (HPLC) (Thermo Fisher Scientific) equipped with an Aminex HPX-87H column. The mobile phase was 5 mM of H2SO4 at a flow rate of 0.6 mL/min, the column temperatures were held at 60° C. and the compounds were detected using a Shodex RI-101 detector (Shodex). […] The mobile phase consisted of Milli-Q water (A), 100 mM formic acid (B) and acetonitrile (C) with a flow rate of 1 mL/min at 30° C. Chromatographic separation of analytes was attained using the following gradient program: t=0-5 min: A-55%, B-10% and C-35% from t=5-10 min ramp to A-10%, B-10% and C-80% and held until 15 min. Then from t=15-16 min, the gradient was returned to A-55%, B-10% and C-35% and maintained isocratic for a total run time of 18 min. For quantification, calibration curves were prepared using pure standards (purity) purchased from Sigma-Aldrich.\nNext, an aim was set to examine the anisole production rate of POMT1 compared to CVOMT1. […] An initial sample was taken and hereafter 50% dodecane was added. Cells were then incubated overnight at 30° C. and 250 rpm. Samples were taken at time zero only from the medium and then after 24 hours from both phases and analyzed at the HPLC."}, "[6]": {"system": "phenol", "test": "Phenol consumption and anisole production by P. putida KT2440 expressing CVOMT1", "type": "cell-based, Pseudomonas putida", "conditions": "50 mM glucose, 1 mM phenol", "protocol": "as §1"}, "[7]": {"system": "phenol", "test": "Growth-coupled methyltransferase selection in CM-Aux", "type": "cell-based, Pseudomonas putida", "excerpt": "This design relies on the conversion of methionine into cysteine through the intermediate homocysteine with the aid of a SAM-dependent methyltransferase. Exogenously added methionine is converted into SAM, which would subsequently be converted into S-adenosyl-l-homocysteine (SAH) by CVOMT1 (FIG. 8C). Then, SAH is converted into homocysteine and subsequently into cysteine by reverse trans-sulfuration restoring growth in the process.\nNext, an aim was set to install the reverse trans-sulfuration module which will convert homocysteine to the amino acid cysteine. This is a two-step process, catalyzed by the enzymes cystathionine-β-synthase and cystathionine-γ-lyase. The C-module was created by cloning the cystathionine-β-synthase (Cys) from S. cerevisiae and the cystathionine-γ-lyase (PA) from Pseudomonas aeruginosa on a pSEVAb62 backbone. The CM-Aux strain was equipped with the C-module and growth of the strain in minimal media was assessed. In all cases, growth could only occur upon the expression of the C-module. This module converts homocysteine to […], and if active, produces cysteine, restoring growth (FIG. 8A). […]\nNext, an aim was set to examine the anisole production rate of POMT1 compared to CVOMT1. […] Samples were taken at time zero only from the medium and then after 24 hours from both phases and analyzed at the HPLC."}}, "note": "Changes are numbered by the printed parent chain. Names may count otherwise.", "data": [{"molecule": "COc1ccccc1", "note": "[anisole]", "values": [{"measurement": "anisole disappeared from media", "setting": "[1]", "result": 89, "unit": "%"}, {"measurement": "anisole in water phase", "setting": "[2]; 0% dodecane", "result": "almost undetectable"}, {"measurement": "anisole captured in organic phase, of initial concentration", "setting": "[2]; 5% dodecane", "result": 19.42, "unit": "%"}, {"measurement": "anisole captured in organic phase, of initial concentration", "setting": "[2]; 15% dodecane", "result": 39.57, "unit": "%"}, {"measurement": "anisole extracted", "setting": "[2]; 30% dodecane", "result": "approximately 75%"}, {"measurement": "anisole extracted", "setting": "[2]; 50% dodecane", "result": "~95", "unit": "%"}, {"measurement": "capture of anisole by organic solvents", "setting": "[3]", "result": "successfully captured"}, {"measurement": "effect on growth", "setting": "[4]", "result": "did not show any detrimental effects on growth"}]}, {"molecule": "Oc1ccccc1", "note": "[phenol]", "values": [{"measurement": "concentration up to which growth rates did not deviate", "setting": "[4]; growth of P. putida KT2440", "result": "up to 2 mM"}, {"measurement": "concentration with detrimental effect on growth rate and final cell density", "setting": "[4]; growth of P. putida KT2440", "result": "≥ 3000", "unit": "µM"}, {"measurement": "phenol concentration the strain was able to withstand", "setting": "[4]; growth of P. putida KT2440", "result": "up to 5 mM"}]}, {"molecule": "B1", "values": [{"measurement": "anisole produced, maximum", "setting": "[5]", "result": 0.06, "unit": "mM"}, {"measurement": "phenol consumed", "setting": "[5]", "result": 0.23, "unit": "mM"}, {"measurement": "anisole yield of the converted phenol", "setting": "[6]; 1 mM methionine added", "result": 15.5, "unit": "% mol/mol"}, {"measurement": "anisole detection", "setting": "[6]; no methionine", "result": "no anisole was detected"}, {"measurement": "phenol consumed", "setting": "[6]; no methionine, 24 hours", "result": 0.12, "unit": "mM"}, {"measurement": "doubling time", "setting": "[7]; CM-Aux with C- and A-module, phenol and methionine added (1 mM)", "result": 1.8, "unit": "h"}]}, {"molecule": "B2", "values": [{"measurement": "increase in anisole concentration compared to wild-type enzyme", "setting": "[5]", "result": 2.33, "unit": "fold"}, {"measurement": "anisole produced, maximum", "setting": "[5]", "result": 0.14, "unit": "mM"}, {"measurement": "phenol consumed", "setting": "[5]", "result": 0.38, "unit": "mM"}, {"measurement": "phenol consumption more than CVOMT1", "setting": "[5]; within 24 hours", "result": 65, "unit": "%"}, {"measurement": "phenol concentration at which maximum growth rate is reached", "setting": "[7]; CM-Aux, 1 mM methionine, different phenol concentrations", "result": 0.2, "unit": "mM"}]}]}
